# Assay results reported in PMC8636514, “Therapeutic potential of TRPM8 antagonists in prostate cancer” (Scientific Reports, 2021).
# Read-outs that look alike come from different tables or passages of the source.
# Biological target: T1, human TRPM8 (Homo sapiens, UniProt Q7Z2W7)
# T1 construct: expressed in transfected cells; host or cells: HEK-293/TRPM8 exon1 K3 cells
# Assay: Patch-clamp assay on TRPM8 channels (HEK-293/TRPM8 cells, menthol-evoked currents)
# Assay type: cell-based
# Method: Patch clamp experiments for compounds 4, 5 and 9 were done as described. HEK-293/TRPM8 exon 1 cells were seeded 3 or 4 days before experiment at a concentration of 4 and 2.5 million cells, respectively, onto a T225 flask. Before each experiment, cells were washed two times with D-PBS without Ca^2+/Mg^2+ (Euroclone, Milan, Italy) and trypsinized with trypsin−EDTA (Sigma-Aldrich; diluted 1/10). Cells were suspended in 25 mL of EX-CELL ACF CHO medium (Sigma-Aldrich, Milan, Italy), 0.625 mL of HEPES (Lonza, Walkersville, USA), 0.25 mL of 100 × penicillin/streptomycin (Lonza, Walkersville, USA), 0.1 mL of soybean trypsin inhibitor 10 mg/mL (Sigma-Aldrich), and placed on the automated patch-clamp platform (QPatch 16X, Sophion Bioscience, Ballerup, Denmark). A stock solution of L-Menthol (1 M, 100% DMSO), used as reference agonist, was freshly prepared. A diluted stock of 300 mM was prepared from the 1 M stock in 100% DMSO, and a final dilution was obtained using the extracellular solution to give a working concentration of 300 μM (1:1000, 0.1% final DMSO concentration). Stock solutions of the testing compounds (10 mM; 100% DMSO; stored at − 20 °C) were freshly prepared, as well. Further dilution of these stock solutions to a final concentration of 300 μM was performed from the 10 mM stock in 100% DMSO, and the working dilutions were performed just before the experiments using the extracellular solution containing 300 μM menthol. The highest concentration tested was 300 nM, with serial dilutions (1:10). DMSO was balanced to keep it constant throughout all the solutions in the same experiment (0.2% final DMSO concentration). Standard whole-cell voltage clamp experiments were performed at room temperature using the multihole technology. For the voltage clamp experiments on human TRPM8, data were sampled at 2 kHz. After establishment of the seal and the passage in the whole cell configuration, the cells were subjected to a voltage ramp (20 ms step at − 60 mV; 100 ms ramp − 60/ + 100 mV; 20 ms step at + 100 mV; return to − 60 mV) every 4 s. The antagonistic effect on human TRPM8 current of target compounds was evaluated after application of the agonist (menthol, 300 μM), in the absence or presence of increasing concentrations of the compound under investigation. Outward current evoked by the voltage ramp, measured in the step at + 100 mV were measured. The intracellular solution contained (mM) 135 CsCl, 10 BAPTA, 10 HEPES, 4 Na2ATP (pH 7.2 with CsOH). The extracellular solution contained (mM) 145 NaCl, 4 KCl, 1 MgCl2, 2 CaCl2, 10 HEPES, 10 glucose (pH 7.4 with NaOH). TRPM8 modulation by final compounds 3 and 6 has been previously determined by patch clamp measurements[29],[30].
# T1 sequence (Q7Z2W7 whole entry): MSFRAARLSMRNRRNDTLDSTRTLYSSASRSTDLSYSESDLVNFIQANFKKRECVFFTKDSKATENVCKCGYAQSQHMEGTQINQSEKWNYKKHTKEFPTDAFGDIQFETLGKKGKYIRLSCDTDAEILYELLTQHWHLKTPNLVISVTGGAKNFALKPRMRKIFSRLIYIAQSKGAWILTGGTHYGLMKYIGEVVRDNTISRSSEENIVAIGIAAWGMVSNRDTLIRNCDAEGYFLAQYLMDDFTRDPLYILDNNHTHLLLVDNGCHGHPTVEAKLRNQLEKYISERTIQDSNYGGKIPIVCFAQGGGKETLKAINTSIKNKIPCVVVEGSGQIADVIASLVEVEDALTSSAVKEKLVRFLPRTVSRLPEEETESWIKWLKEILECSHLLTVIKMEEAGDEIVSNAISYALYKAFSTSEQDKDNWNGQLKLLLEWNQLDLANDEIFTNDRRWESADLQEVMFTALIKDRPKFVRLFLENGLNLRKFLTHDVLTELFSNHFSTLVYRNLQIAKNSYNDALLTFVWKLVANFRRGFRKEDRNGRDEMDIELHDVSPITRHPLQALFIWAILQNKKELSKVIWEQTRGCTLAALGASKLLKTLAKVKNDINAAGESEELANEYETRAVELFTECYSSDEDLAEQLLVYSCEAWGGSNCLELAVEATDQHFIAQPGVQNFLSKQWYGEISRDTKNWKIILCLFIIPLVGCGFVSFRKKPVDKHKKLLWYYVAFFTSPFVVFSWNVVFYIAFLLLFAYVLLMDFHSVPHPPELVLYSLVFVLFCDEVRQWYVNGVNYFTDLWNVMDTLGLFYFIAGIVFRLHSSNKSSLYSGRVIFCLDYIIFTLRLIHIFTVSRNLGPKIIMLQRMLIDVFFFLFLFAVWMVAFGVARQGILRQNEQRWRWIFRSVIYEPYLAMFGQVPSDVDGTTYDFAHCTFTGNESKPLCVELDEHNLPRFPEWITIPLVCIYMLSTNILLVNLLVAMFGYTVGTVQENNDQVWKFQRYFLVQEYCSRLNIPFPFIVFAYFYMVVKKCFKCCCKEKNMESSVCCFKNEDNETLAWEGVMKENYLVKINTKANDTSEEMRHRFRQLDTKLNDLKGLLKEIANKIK
smiles,measurement,setting,value
c1ccc(COc2ccc3[nH]cc(CCNCc4ccc(Oc5ccccc5)cc4)c3c2)cc1 [Compound 4],IC50,"300 µM menthol-evoked currents, read-out: Potency IC50",204 ± 15 nM
same,IC50,"TRPM8 antagonist, menthol-evoked currents, one range for both compounds, read-out: IC50",204 to 340 nM
same,inhibitory effect on menthol-evoked TRPM8 currents,dependence on concentration,concentration-dependent
